Assay results reported in the NIST ThermoML archive (doi:10.1021/je200434a).

Details: 101.33 kPa, Liquid; for viscosity: Concentric cylinders viscometry; for mass density: Vibrating tube method

CCCCCCCCOS(=O)(=O)[O-].CCn1cc[n+](C)c1 [1-ethyl-3-methylimidazolium octyl sulfate]
Details | mass density [kg/m3] | viscosity [mPa·s]
283.15 K | – | 1879
288.15 K | – | 1252.1
293.15 K | 1098.76 | 856
294.15 K | 1098.1 | –
295.15 K | 1097.43 | –
296.15 K | 1096.77 | –
297.15 K | 1096.31 | –
298.15 K | 1095.65 | 601.6
299.15 K | 1094.99 | –
300.15 K | 1094.32 | –
301.15 K | 1093.65 | –
302.15 K | 1092.99 | –
303.15 K | 1092.32 | 433.6
304.15 K | 1091.66 | –
305.15 K | 1090.99 | –
306.15 K | 1090.33 | –
307.15 K | 1089.66 | –
308.15 K | 1089 | 319.6
309.15 K | 1088.33 | –
310.15 K | 1087.67 | –
311.15 K | 1087 | –
312.15 K | 1086.34 | –
313.15 K | 1085.68 | 240.5
314.15 K | 1085.02 | –
315.15 K | 1084.36 | –
316.15 K | 1083.7 | –
317.15 K | 1083.04 | –
318.15 K | 1082.38 | 184.4
319.15 K | 1081.72 | –
320.15 K | 1081.06 | –
321.15 K | 1080.4 | –
322.15 K | 1079.75 | –
323.15 K | 1079.09 | 143.8
324.15 K | 1078.44 | –
325.15 K | 1077.78 | –
326.15 K | 1077.13 | –
327.15 K | 1076.48 | –
328.15 K | 1075.83 | 113.9
329.15 K | 1075.17 | –
330.15 K | 1074.52 | –
331.15 K | 1073.87 | –
332.15 K | 1073.23 | –
333.15 K | 1072.58 | 91.6
334.15 K | 1071.93 | –
335.15 K | 1071.29 | –
336.15 K | 1070.64 | –
337.15 K | 1070 | –
338.15 K | 1069.35 | 74.5
339.15 K | 1068.71 | –
340.15 K | 1068.07 | –
341.15 K | 1067.43 | –
342.15 K | 1066.79 | –
343.15 K | 1066.15 | 61.4
344.15 K | 1065.51 | –
345.15 K | 1064.87 | –
346.15 K | 1064.23 | –
347.15 K | 1063.6 | –
348.15 K | 1062.96 | 51.1
349.15 K | 1062.32 | –
350.15 K | 1061.69 | –
351.15 K | 1061.05 | –
352.15 K | 1060.42 | –
353.15 K | 1059.79 | 43
354.15 K | 1059.16 | –
355.15 K | 1058.53 | –
356.15 K | 1057.89 | –
357.15 K | 1057.26 | –
358.15 K | 1056.63 | 36.5
359.15 K | 1056 | –
360.15 K | 1055.37 | –
361.15 K | 1054.75 | –
362.15 K | 1054.12 | –
363.15 K | 1053.49 | 31.3
368.15 K | – | 27
373.15 K | – | 23.5

CCCCCCOS(=O)(=O)[O-].CC[n+]1ccn(C)c1 [3-ethyl-1-methyl-1H-imidazolium hexyl sulfate]
Details | mass density [kg/m3] | viscosity [mPa·s]
283.15 K | – | 875
288.15 K | – | 604
293.15 K | 1133.8 | 428.3
294.15 K | 1133.12 | –
295.15 K | 1132.45 | –
296.15 K | 1131.77 | –
297.15 K | 1131.09 | –
298.15 K | 1130.42 | 311.4
299.15 K | 1129.74 | –
300.15 K | 1129.07 | –
301.15 K | 1128.4 | –
302.15 K | 1127.72 | –
303.15 K | 1127.05 | 231.5
304.15 K | 1126.38 | –
305.15 K | 1125.71 | –
306.15 K | 1125.04 | –
307.15 K | 1124.37 | –
308.15 K | 1123.7 | 175.7
309.15 K | 1123.03 | –
310.15 K | 1122.36 | –
311.15 K | 1121.7 | –
312.15 K | 1121.03 | –
313.15 K | 1120.37 | 135.9
314.15 K | 1119.7 | –
315.15 K | 1119.04 | –
316.15 K | 1118.38 | –
317.15 K | 1117.72 | –
318.15 K | 1117.06 | 106.9
319.15 K | 1116.4 | –
320.15 K | 1115.74 | –
321.15 K | 1115.08 | –
322.15 K | 1114.42 | –
323.15 K | 1113.77 | 85.4
324.15 K | 1113.12 | –
325.15 K | 1112.46 | –
326.15 K | 1111.81 | –
327.15 K | 1111.16 | –
328.15 K | 1110.51 | 69.2
329.15 K | 1109.86 | –
330.15 K | 1109.21 | –
331.15 K | 1108.56 | –
332.15 K | 1107.92 | –
333.15 K | 1107.27 | 56.8
334.15 K | 1106.63 | –
335.15 K | 1105.98 | –
336.15 K | 1105.33 | –
337.15 K | 1104.69 | –
338.15 K | 1104.05 | 47.2
339.15 K | 1103.41 | –
340.15 K | 1102.77 | –
341.15 K | 1102.13 | –
342.15 K | 1101.49 | –
343.15 K | 1100.85 | 39.6
344.15 K | 1100.21 | –
345.15 K | 1099.57 | –
346.15 K | 1098.93 | –
347.15 K | 1098.3 | –
348.15 K | 1097.66 | 33.6
349.15 K | 1097.02 | –
350.15 K | 1096.39 | –
351.15 K | 1095.75 | –
352.15 K | 1095.12 | –
353.15 K | 1094.49 | 28.8
354.15 K | 1093.85 | –
355.15 K | 1093.22 | –
356.15 K | 1092.59 | –
357.15 K | 1091.95 | –
358.15 K | 1091.32 | 24.8
359.15 K | 1090.69 | –
360.15 K | 1090.06 | –
361.15 K | 1089.43 | –
362.15 K | 1088.8 | –
363.15 K | 1088.17 | 21.6
368.15 K | – | 18.9
373.15 K | – | 16.7

CCn1cc[n+](C)c1.COS(=O)(=O)[O-] [1-ethyl-3-methylimidazolium methylsulfate]
Details | mass density [kg/m3] | viscosity [mPa·s]
283.15 K | – | 169.5
288.15 K | – | 128.6
293.15 K | 1289.48 | 99.7
294.15 K | 1288.8 | –
295.15 K | 1288.1 | –
296.15 K | 1287.41 | –
297.15 K | 1286.71 | –
298.15 K | 1286.02 | 78.8
299.15 K | 1285.33 | –
300.15 K | 1284.64 | –
301.15 K | 1283.95 | –
302.15 K | 1283.26 | –
303.15 K | 1282.57 | 63.4
304.15 K | 1281.89 | –
305.15 K | 1281.2 | –
306.15 K | 1280.52 | –
307.15 K | 1279.84 | –
308.15 K | 1279.15 | 51.8
309.15 K | 1278.48 | –
310.15 K | 1277.8 | –
311.15 K | 1277.12 | –
312.15 K | 1276.44 | –
313.15 K | 1275.76 | 42.9
314.15 K | 1275.09 | –
315.15 K | 1274.41 | –
316.15 K | 1273.74 | –
317.15 K | 1273.07 | –
318.15 K | 1272.4 | 35.9
319.15 K | 1271.72 | –
320.15 K | 1271.05 | –
321.15 K | 1270.38 | –
322.15 K | 1269.71 | –
323.15 K | 1269.04 | 30.5
324.15 K | 1268.37 | –
325.15 K | 1267.71 | –
326.15 K | 1267.04 | –
327.15 K | 1266.38 | –
328.15 K | 1265.71 | 26.1
329.15 K | 1265.05 | –
330.15 K | 1264.39 | –
331.15 K | 1263.72 | –
332.15 K | 1263.06 | –
333.15 K | 1262.4 | 22.6
334.15 K | 1261.74 | –
335.15 K | 1261.08 | –
336.15 K | 1260.42 | –
337.15 K | 1259.76 | –
338.15 K | 1259.1 | 19.7
339.15 K | 1258.44 | –
340.15 K | 1257.78 | –
341.15 K | 1257.13 | –
342.15 K | 1256.47 | –
343.15 K | 1255.81 | 17.3
344.15 K | 1255.15 | –
345.15 K | 1254.5 | –
346.15 K | 1253.84 | –
347.15 K | 1253.19 | –
348.15 K | 1252.54 | 15.3
349.15 K | 1251.88 | –
350.15 K | 1251.23 | –
351.15 K | 1250.58 | –
352.15 K | 1249.93 | –
353.15 K | 1249.28 | 13.6
354.15 K | 1248.63 | –
355.15 K | 1247.98 | –
356.15 K | 1247.33 | –
357.15 K | 1246.68 | –
358.15 K | 1246.03 | 12.2
359.15 K | 1245.38 | –
360.15 K | 1244.74 | –
361.15 K | 1244.09 | –
362.15 K | 1243.44 | –
363.15 K | 1242.8 | 11
368.15 K | – | 9.9
373.15 K | – | 9
